According to US10315992B2, “Tetracyline compounds” (Tetraphase Pharmaceuticals, Inc., priority 2012, dated 2019):
≈ marks a conversion by molar mass, not a printed value. Where two headings read alike, the source gives them in different places.

How the values were obtained:
EC 882 imp = assay: MIC assay, EC882; type: cell-based
Excerpt: (§1) Minimum Inhibitory Concentration (MIC) Assay
(§2) The assays were run as follows.

[1] = test system: Enterobacter cloacae EC108 (ATCC 13047); assay: MIC assay, EC108; type: cell-based; conditions: ATCC13047, read-out: MIC ECI 108 13047
[2] = test system: Staphylococcus aureus SA158 (tetracycline-resistant tet(K)); assay: MIC assay, SA158; type: cell-based
[3] = test system: Staphylococcus aureus SA100 (ATCC 13709, MSSA, Smith strain); assay: MIC assay, SA100; type: cell-based; conditions: read-out: MIC SA 100 13709
EC 880 ipxC = assay: MIC assay, EC880; type: cell-based
Excerpt: as §1, §2

[4] = test system: Pseudomonas aeruginosa PA555 (ATCC BAA-47, PAO1); assay: MIC assay, PA555; type: cell-based
[5] = test system: Klebsiella pneumoniae KP153 (tet(A), MDR, ESBL+); conditions: K. pneumoniae tet(A), MDR, ESBL+
[6] = test system: Pseudomonas aeruginosa PA111 (ATCC 27853); assay: MIC assay, PA111; type: cell-based; conditions: ATCC27853, read-out: MIC PA 111 27853
[7] = test system: Enterococcus faecalis EF159 (tet(M)); assay: MIC assay, EF159; type: cell-based
[8] = test system: Enterococcus faecalis EF327 (wound isolate, tet(M)); assay: MIC assay, EF327; type: cell-based
[9] = test system: Enterococcus faecalis EF103 (ATCC 29212); assay: MIC assay, EF103; type: cell-based; conditions: ATCC29212, read-out: MIC EF 103 29212
[10] = test system: Staphylococcus aureus SA191 (HA-MRSA, tetracycline-resistant); assay: MIC assay, SA191; type: cell-based; conditions: MRSA, read-out: MIC SA 191
[11] = test system: Escherichia coli EC155 (tet(A)); assay: MIC assay, EC155; type: cell-based; conditions: Escherichia coli, read-out: MIC EC 155 tetA
[12] = test system: Escherichia coli EC878 (MG1655 tolC::kan); assay: microbe, parasite or virus in culture; type: cell-based
[13] = test system: Enterobacter cloacae EC603 (urine isolate); assay: MIC assay, EC603; type: cell-based
[14] = test system: Moraxella catarrhalis MC205 (ATCC 8176); assay: MIC assay, MC205; type: cell-based; conditions: ATCC8176, read-out: MIC MC 205 8176
[15] = test system: Staphylococcus aureus SA161 (HA-MRSA, tet(M)); assay: MIC assay, SA161; type: cell-based; conditions: Staphylococcus aureus, MRSA
KP 194 7E+05 = assay: MIC assay, KP194; conditions: Table 5
Procedure: (§3) MICs were determined according to the Clinical and Laboratory Standards Institute (CLSI) guidances (e.g., CLSI. Performance standards for antimicrobial susceptibility testing; nineteenth information supplement. CLSI document M100-S19, CLSI, 940 West Valley Road, Suite 1400, Wayne, Pa. 19087-1898, USA, 2009). Briefly, frozen bacterial strains were thawed and subcultured onto Mueller Hinton Broth (MHB) or other appropriate media (Streptococcus requires blood and Haemophilus requires hemin and NAD). Following incubation overnight, the strains were subcultured onto Mueller Hinton Agar and again incubated overnight. […] Isolated colonies were selected to prepare a starting inoculum equivalent to a 0.5 McFarland standard. […] Test compounds were prepared by dilution in sterile water to a final concentration of 5.128 mg/mL. Antibiotics (stored frozen, thawed and used within 3 hours of thawing) and compounds were further diluted to the desired working concentrations.
(§4) The assays were run as follows. Fifty μL of MHB was added to wells 2-12 of a 96-well plate. One hundred μL of appropriately diluted antibiotics was added to well 1. Fifty μL of antibiotics was removed from well 1 and added to well 2 and the contents of well 2 mixed by pipetting up and down five times. Fifty μL of the mixture in well 2 was removed and added to well 3 and mixed as above. Serial dilutions were continued in the same manner through well 12. Fifty μL was removed from well 12 so that all contained 50 μL. Fifty μL of the working inoculum was then added to all test wells. A growth control well was prepared by adding 50 μL of working inoculum and 50 μL of MHB to an empty well. The plates were then incubated at 37° C. overnight, removed from the incubator and each well was read on a plate reading mirror. The lowest concentration (MIC) of test compound that inhibited the growth of the bacteria was recorded.

[16] = test system: Stenotrophomonas maltophilia SM256 (cystic fibrosis isolate, MDR); assay: MIC assay, SM256; type: cell-based
[17] = test system: Escherichia coli EC107 (ATCC 25922); assay: MIC assay, EC107; type: cell-based
[18] = test system: Acinetobacter baumannii AB250 (cystic fibrosis isolate, MDR); assay: MIC assay, AB250; type: cell-based
PA 884 35151 = assay: MIC assay, PA884; conditions: Pseudomonas aeruginosa, read-out: MIC PA 884 351 51
Procedure: as §3, §4

[19] = test system: Haemophilus influenzae HI262 (tetracycline-resistant, ampicillin-resistant); assay: MIC assay, HI262; type: cell-based; conditions: read-out: MIC HI 262 33929
[20] = test system: Klebsiella pneumoniae KP457 (2009 ESBL+, CTX-M, OXA)
[21] = test system: Acinetobacter baumannii AB110 (ATCC 19606); assay: MIC assay, AB110; type: cell-based; conditions: ATCC19606, read-out: MIC AB 110 19606

## CN(C)[C@@H]1C(O)=C(C(N)=O)C(=O)[C@@]2(O)C(O)=C3C(=O)c4c(O)cccc4C[C@H]3C[C@@H]12 [Sancycline, sancycline]
EC 882 imp; Table 7, read-out: MIC EC 882 imp
  MIC: 0.25 µg/mL (≈ 0.603 µM)
EC 882 imp; read-out: MIC EC 882 imp, Table 6
  MIC: 0.25 µg/mL (≈ 0.603 µM)
[1]
  MIC: 8 µg/mL (≈ 19.3 µM)
[2]; read-out: MIC SA 158 tetK, S. aureus tet(K), Table 4
  MIC: 4 µg/mL (≈ 9.65 µM)
[2]; read-out: MIC SA 158 tetK, S. aureus tet(K), Table 5
  MIC: 4 µg/mL (≈ 9.65 µM)
[2]; read-out: MIC SA 158 tetK, S. aureus tet(K), Table 6
  MIC: 4 µg/mL (≈ 9.65 µM)
[2]; read-out: MIC SA 158 tetK, S. aureus tet(K), Table 7
  MIC: 4 µg/mL (≈ 9.65 µM)
[2]; read-out: MIC SA 158 tetK, control compounds
  MIC: 4 µg/mL (≈ 9.65 µM)
[2]; read-out: MIC SA 158 tetK, control compounds, numeric
  MIC: 4 µg/mL (≈ 9.65 µM)
[3]
  MIC: 1 µg/mL (≈ 2.41 µM)
EC 880 ipxC; Table 7, read-out: MIC EC 880 ipxC
  MIC: 0.25 µg/mL (≈ 0.603 µM)
EC 880 ipxC; read-out: MIC EC 880 ipx C
  MIC: 0.2 µg/mL (≈ 0.483 µM)
[4]
  MIC: 32 µg/mL (≈ 77.2 µM)
[4]; read-out: MIC PA5 55 BAA- 47
  MIC: 32 µg/mL (≈ 77.2 µM)
[4]; read-out: MIC PA 555
  MIC: 32 µg/mL (≈ 77.2 µM)
[4]; read-out: MIC PA 555 BAA- 47
  MIC: 32 µg/mL (≈ 77.2 µM)
[4]; read-out: MIC PA 555 BAA-47
  MIC: 32 µg/mL (≈ 77.2 µM)
[5]; Table 4
  MIC KP 153 tetA: 32 µg/mL (≈ 77.2 µM)
[5]; Table 5
  MIC KP 153 tetA: 32 µg/mL (≈ 77.2 µM)
[6]
  MIC: 33 µg/mL (≈ 79.6 µM)
[7]; read-out: MIC EF 159 tetM, E. faecalis tet(M), Table 4
  MIC: 8 µg/mL (≈ 19.3 µM)
[7]; read-out: MIC EF 159 tetM, E. faecalis tet(M), Table 5
  MIC: 8 µg/mL (≈ 19.3 µM)
[8]; read-out: MIC EF 327 tet M
  MIC: 4 µg/mL (≈ 9.65 µM)
[8]; read-out: MIC EF 327 tetM
  MIC: 4 µg/mL (≈ 9.65 µM)
[9]
  MIC: 8 µg/mL (≈ 19.3 µM)
[10]
  MIC: 8 µg/mL (≈ 19.3 µM)
[11]
  MIC: 32 µg/mL (≈ 77.2 µM)
[12]; MG1655, read-out: MIC EC 878 toIC, E. coli MG1655 tolC::kan, Table 6
  MIC: 1 µg/mL (≈ 2.41 µM)
[12]; MG1655, read-out: MIC EC 878 toIC, E. coli MG1655 tolC::kan, Table 7
  MIC: 1 µg/mL (≈ 2.41 µM)
[12]; MG1655, read-out: MIC EC 878 toIC, control compounds
  MIC: 1 µg/mL (≈ 2.41 µM)
[12]; MG1655, read-out: MIC EC 878 tolC, control compounds, numeric
  MIC: 1 µg/mL (≈ 2.41 µM)
[13]
  MIC: 32 µg/mL (≈ 77.2 µM)
[13]; read-out: MIC EC 603 tetA
  MIC: 32 µg/mL (≈ 77.2 µM)
[14]
  MIC: 0.13 µg/mL (≈ 0.314 µM)
[15]; read-out: MIC SA 161 MRSAtetM
  MIC: 2 µg/mL (≈ 4.83 µM)
[15]; read-out: MIC SA 161 tet M
  MIC: 2 µg/mL (≈ 4.83 µM)
[15]; read-out: MIC SA 161 tetM
  MIC: 2 µg/mL (≈ 4.83 µM)
KP 194 7E+05
  MIC KP 194 7E+05: 32 μg/mL
[16]
  MIC: 1 µg/mL (≈ 2.41 µM)
[16]; read-out: MIC SM 256
  MIC: 1 µg/mL (≈ 2.41 µM)
[17]; ATCC25922, read-out: MIC EC 07 25922, E. coli ATCC 25922, Table 7
  MIC: 8 µg/mL (≈ 19.3 µM)
[17]; ATCC25922, read-out: MIC EC 107 259 22, E. coli ATCC 25922, Table 6
  MIC: 8 µg/mL (≈ 19.3 µM)
[17]; ATCC25922, read-out: MIC EC 107 25922, E. coli ATCC 25922, Table 4
  MIC: 8 µg/mL (≈ 19.3 µM)
[17]; ATCC25922, read-out: MIC EC 107 25922, E. coli ATCC 25922, Table 5
  MIC: 8 µg/mL (≈ 19.3 µM)
[17]; ATCC25922, read-out: MIC EC 107 25922, control compounds
  MIC: 8 µg/mL (≈ 19.3 µM)
[17]; ATCC25922, read-out: MIC EC 107 25922, control compounds, numeric
  MIC: 8 µg/mL (≈ 19.3 µM)
[18]
  MIC: 16 µg/mL (≈ 38.6 µM)
[18]; read-out: MIC AB 250
  MIC: 16 µg/mL (≈ 38.6 µM)
PA 884 35151
  MIC: 4 µg/mL (≈ 9.65 µM)
[19]
  MIC: 0.5 µg/mL (≈ 1.21 µM)
[20]
  MIC KP 457: 8 µg/mL (≈ 19.3 µM)
  MIC KP 457 CTX- M-15: 8 µg/mL (≈ 19.3 µM)
  MIC KP 457 CTX-M-15: 8 µg/mL (≈ 19.3 µM)
[21]
  MIC: 0.25 µg/mL (≈ 0.603 µM)
